{
  "source": "patent US20130205449A1",
  "about": "“Methods and Compositions for Production of Triploid Sterile Plants” (University of Connecticut, priority 2011, published 2013)",
  "format_in_all_cases": "cell-based, Euonymus alatus",
  "key": {"[1]": {"test_system": "E. alatus ‘Compactus’ immature endosperm explants", "experiment": "Callus induction from immature endosperm explants", "details": "in combination with the same concentration of BA", "protocol": "(§1) Except for rooting, all the media described herein were composed of MS salts (Murashige and Skoog, 1962) with 100 mg/L myo-inositol, 2.0 mg/L glycine, 1.0 mg/L thiamine-HCl, 0.5 mg/L nicotinic acid, 0.5 mg/L pyridoxine-HCl, 0.3 g/L casein hydrolysate, 0.5 g/L 2-(Nmorpholino) ethanesulfonic acid, 30.0 g/L sucrose, and 7.0 g/L agar. The pH of all culture media was adjusted to 5.8 with KOH or HCl before addition of agar. All media were autoclaved at 121° C. for 20 minutes, and all the cultures, except for those specifically mentioned, were maintained at 23±2° C. under 35 to 45 μmol/m^2s light provided by white cool fluorescent tube lamps over a 16-hour photoperiod.\nEndosperm tissues with seedcoats and embryos completely removed were used for triploid callus induction (FIG. 1A). […]\nSeed coats and embryos were removed, and the immature endosperm explants were cultured in disposable petri dishes (90×20 mm) containing MS medium supplemented with different combinations of four concentrations of BA (2.22, 4.44, 8.88, and 17.76 μM), three concentrations of NAA (2.69, 5.38, and 10.76 μM), and two concentrations of 2,4-dichlorophenoxy-acetic acid (2,4-D) (2.26 and 9.04 μM) to induce callus formation. […] Callus formation data were recorded at Week 12 of culture, and mean number of immature endosperm explants forming calli was calculated based on three replicates for each treatment. […]"}, "[2]": {"test_system": "shoots from embryo or endosperm-derived calli", "experiment": "Rooting of regenerated shoots", "protocol": "After shoot buds were formed from embryo or endosperm-derived calli, they were transferred together with their callus explants into Magenta boxes containing the MS medium supplemented with 4.44 μM BA and 0.49 μM IBA for further growth. When the shoots grew to 1 to 2 cm in height, they were excised from callus tissues and cultured on root induction Medium I, which included half strength WPM (Lloyd and McCown, 1980, Proc. Intl. Plant Prop. Soc., 30:421-427) with 2% sucrose, 0.04% ammonium nitrate, 0.4% agar, 0.14% phytagel (a blended agar and phytagel medium was used to produce a totally transparent medium so that initiation and growth of roots could be easily monitored), and 4.9 μM IBA (Clements, 2007, In vitro induction of polyploidy, rooting, and overcoming the dormancy limitations of Euonymus alatus ‘Compactus,” MS Thesis, Univ. of. Conn., p. 536)). Two weeks later, the shoots were transferred onto rooting Medium II (Clements, 2007), which was IBA-free rooting Medium I with 2 g/L activated charcoal (Kang et al., 2009). The pH of the rooting media was adjusted to 5.2 with KOH or HCl before the addition of gelling agents. The root cultures were transferred to fresh medium every four weeks. […]"}, "[3]": {"test_system": "immature endosperm-derived calli of E. alatus ‘Compactus’", "experiment": "Shoot bud induction from immature endosperm-derived calli", "details": "zeatin at 9.13 or 18.26 μM, kinetin at 9.30 or 18.60 μM, in the presence of 0.49 μM IBA", "protocol": "as §1\nAfter 12 weeks of culture, compact, greenish calli formed on six callus induction media supplemented with 2.22, 4.44, or 8.88 μM BA and 2.69 or 5.38 μM NAA were cut into pieces (approximately 0.5 cm×0.5 cm in size) and transferred to the petri dishes containing shoot induction media supplemented with 4.44 or 13.32 μM BA, 9.13 or 18.26 μM zeatin, and 9.30 or 18.60 μM kinetin plus 0.49 μM IBA or 0.57 μM indole-3-acetic acid (IAA). Callus segments also were cultured on hormone free MS medium as a control. […] Bud (shoot bud) formation was recorded at Week 8 of culture. Bud induction rates were calculated by dividing the number of calli forming shoot buds by the number of calli cultured. […]"}},
  "data": [
    {"compound": "O=C(O)COc1ccc(Cl)cc1Cl", "note": "[2,4-D, 2,4-dichlorophenoxy-acetic acid]", "values": [
      {"measurement": "Effectiveness in callus induction compared with NAA", "setting": "[1]", "result": "less effective in callus induction than NAA"}
    ]},
    {"compound": "O=C(O)CCCc1c[nH]c2ccccc12", "note": "[IBA, indole-3-butyric acid]", "values": [
      {"measurement": "Shoots developed into healthy plants with well-developed roots", "setting": "[2]; Medium I with 4.9 μM IBA two weeks, then IBA-free Medium II with 2 g/L activated charcoal, within 10 weeks of culture", "result": 85, "unit": "%"},
      {"measurement": "Shoots rooted", "setting": "[2]; WPM with 4.9 μM IBA for two weeks, then hormone-free WPM with 2.0 g/L activated charcoal for four weeks", "result": "Eighty five percent"}
    ]},
    {"compound": "c1coc(CNc2ncnc3[nH]cnc23)c1", "note": "[kinetin]", "values": [
      {"measurement": "Bud formation", "setting": "[3]", "result": "failed to induce bud formation"}
    ]},
    {"compound": "C/C(=C\\CNc1ncnc2[nH]cnc12)CO", "note": "[zeatin]", "values": [
      {"measurement": "Bud formation", "setting": "[3]", "result": "failed to induce bud formation"}
    ]}
  ]
}
